Measurements: patent publication US7192728B2, “Screening assays for agents that alter inhibitor of apoptosis (IAP) protein regulation of caspase activity” (The Burnham Institute, priority 1997, dated 2007)

Tests used:
293T cells = test: Bax-induced apoptosis and caspase activation in transfected 293T cells; assay type: cell-based, human
Protocol: N-benzyloxycarbonyl-Val-Ala-Asp fluoromethylketone (zVAD-fmk; 50 μM) (Bachem Calif.; Torrance, Calif.) was added immediately after transfection of the Bax plasmid. Transfection efficiency was uniformly 80–90%, as determined by X-Gal staining following cotransfection with pCMV-βGal.
Cells were maintained in culture for 24 hr, then floating and attached cells were harvested and an aliquot was removed and the percent of dead cells was determined by either trypan blue or propidium iodide (PI) dye exclusion assay. A second aliquot was used to assess the percentage of apoptotic cells with subdiploid DNA content by FACS analysis of PI stained, ethanol fixed cells. The remaining cell pellets were lysed in 10 mM HEPES (pH 7.5), 142 mM KCl, 1 mM EGTA, 1 mM DTT, 0.2% NP-40, 0.1 mM PMSF and used for immunoblot analysis or for protease assays.

caspase-7 = target: T1, caspase-7 (Homo sapiens, UniProt P55210); test: Inhibition of purified recombinant caspase-7, DEVD substrate hydrolysis and progress curves; assay type: biochemical
T1 construct: Purified active caspase concentrations ranged from 0.1 nM to 10 nM; His6; made in house; host or cells: E. coli BL21(DE3)pLysS
T1 sequence (P55210 24-198 limits assumed): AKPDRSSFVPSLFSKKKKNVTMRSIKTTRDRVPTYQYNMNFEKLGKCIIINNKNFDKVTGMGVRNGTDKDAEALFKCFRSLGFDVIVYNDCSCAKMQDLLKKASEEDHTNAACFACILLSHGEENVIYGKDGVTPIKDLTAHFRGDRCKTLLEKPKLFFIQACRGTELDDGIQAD
T1 sequence (P55210 207-303 limits assumed): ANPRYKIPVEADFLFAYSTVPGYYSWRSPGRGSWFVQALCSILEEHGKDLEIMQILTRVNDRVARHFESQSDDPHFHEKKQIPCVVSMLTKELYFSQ
Protocol: Purified recombinant caspase-1, caspase-3, caspase-6, caspase-7 or caspase-8 were incubated with DEVD-pNA, either alone or with a 10-fold to 50-fold molar excess of GST-XIAP (20 μM) and substrate hydrolysis was measured. Purified active caspase concentrations ranged from 0.1 nM to 10 nM. XIAP concentration ranged from 0.1 nM to 500 nM. Assays were performed in caspase buffer (50 mM Tris, pH 7.4, 100 mM NaCl, 10% sucrose, 5–10 mM DTT, 1 mM EDTA and 0.1% CHAPS).
Equilibria were determined from progress curves when substrate hydrolysis reached a steady-state; slopes were calculated by curve fit analysis using the cricket graph program. Experiments were performed using purified recombinant caspase-3, caspase-6, or caspase-7. DEVD-AFC hydrolysis was measured using 0.1 nM caspase and a range of concentrations (0.2 to 12 μM) of recombinant XIAP (rXIAP). […] Average ratio velocities (vi/vo, where “vi” indicates presence of GST-XIAP and “vo” indicates absence of GST-XIAP) were determined.
Caspase activity was determined essentially as described in Example II, using the benzylyoxycarbonyl-DEVD-AFC (SEQ ID NO: 2) substrate and was assayed at 37° C. using the Perkin-Elmer LS50B fluorometric plate reader in the kinetic mode with excitation and emission wavelengths of 400 nm and 505 nm, respectively. […] Reactions were performed in caspase buffer (50 mM Hepes, 100 mM NaCl, 1 mM EDTA, 0.1% CHAPS, 10% sucrose, 5 mM DTT). The inhibition constant, Ki, was calculated as described (Zhou et al., supra, 1997).

[1] = tested on: HeLa cell nuclei in cytosolic extract; test: Apoptosis of isolated nuclei in cell-free system (cytochrome c/dATP); conditions: 0.4 μM protein with 10 μM cytochrome c and 1 mM dATP; 37° C., 60 min; baseline about 15%, cytochrome c/dATP alone >95%
Protocol: Cells were washed with ice cold buffer A (20 mM Hepes (pH 7.5), 10 mM KCl, 1.5 mM MgCl2, 1 mM EDTA, 1 mM DTT and 0.1 mM PMSF) and suspended in 1 vol buffer A, then incubated on ice for 20 min. 293 cells were disrupted by passage 15× through a 26 gauge needle and Jurkat T cells were disrupted by dounce homogenization in 2 ml using 15 strokes with a pestle B. Cell extracts (10–15 mg total protein/ml) were clarified by centrifugation at 16,000×g for 30 min, then the NaCl concentration was increased by 50 mM. Cytosolic fractions were used immediately or stored frozen at −80° C.
Isolated nuclei were prepared from HeLa cells (Martin et al., supra, 1995). Approximately 5×10^4 to 1×10^5 nuclei were added to 20 μl cytosolic extract and apoptosis was initiated by adding 10 μM horse heart cytochrome c (Sigma, Inc.; St. Louis Mo.) and 1 mM dATP, alone (positive control) or with cytochrome c, dATP and either 0.4 μM GST-XIAP or 0.4 μM GST-Bcl-2. Following incubation at 37° C. for 60 min., nuclei were stained with 1 μg/ml of acridine orange and ethidium bromide and the percentage nuclei with apoptotic features, including extremely condensed chromatin and the genesis of fragmentation of nuclei, was determined.

XIAP: X chromosome linked inhibitor of apoptosis protein (Genbank U32974), used mostly as recombinant GST fusion or expressed from plasmid
apoptotic cells (PI staining) in Bax expressing cells (293T cells; 24 hr, Bax alone about 25%, zVAD-fmk 50 μM): less than 10%
Bax-induced generation of caspase activity and pro-caspase-3 processing (in words) (293T cells; DEVD-AFC hydrolysis and immunoblot of cell extracts): markedly inhibited
apoptotic cells (PI staining) (293T cells; XIAP expressed without Bax, control plasmid about 2%): about 5%
inhibition of processing of DEVD-pNA by caspase-7 (caspase-7; 10-fold molar excess): greater than 95%
average ratio velocity (vi/vo), caspase-7 (caspase-7; DEVD-AFC hydrolysis with/without GST-XIAP): less than 0.2
Ki (caspase-7; progress curve analysis, DEVD-AFC 0.1 mM, 0.1 nM caspase, read-out: inhibition constant (Ki) for caspase-7): ~0.2 nM
apoptotic nuclei [1]: about 15%
